{
  "source": "ChEMBL document CHEMBL5137108",
  "about": "“Calofolic Acid-A from Calophyllum scriblitifolium Bark Has Vasorelaxant Activity via Indirect PKA Activation Caused by PI-3 Kinase Inhibition in Rat Vascular Smooth Muscle Cells” (J Nat Prod, 2022)",
  "key": {"VSMC [1]": {"system": "VSMC", "assay": "Activation of PKA substrate phosphorylation in Wistar rat VSMCs at 100 uM incubated for 60 mins by Western blot analysis", "format": "cell-based", "conditions": "filed as activator"}, "VSMC [2]": {"system": "VSMC", "assay": "Activation of PKA substrate phosphorylation in isoproterenol-induced Wistar rat VSMCs at 100 uM preincubated for 60 mins followed by ISO stimulation and measured upto 30 mins by Western blot analysis", "format": "cell-based", "conditions": "filed as activator, time 90.0 min"}, "VSMC [3]": {"system": "VSMC", "assay": "Activation of PKA substrate phosphorylation in isoproterenol-induced Wistar rat VSMCs at 10 uM preincubated for 60 mins followed by isoproterenol stimulation and measured upto 20 mins by Western blot analysis", "format": "cell-based", "conditions": "filed as activator, time 80.0 min"}, "VSMC [4]": {"system": "VSMC", "assay": "Activation of PKA in isoproterenol-induced Wistar rat VSMCs assessed as increase in intracellular cAMP concentration at 100 uM measured 20 mins after ISO stimulation", "format": "cell-based", "conditions": "filed as activator"}, "VSMC [5]": {"system": "VSMC", "assay": "Cytotoxicity against Wistar rat VSMCs assessed as reduction in cell viability at 50 uM incubated for 48 hrs by MTT assay", "format": "toxicity, cell-based"}, "VSMC [6]": {"system": "VSMC", "assay": "Inhibition of phenylephrine-induced MLC phosphorylation at Ser19 residue in Wistar rat VSMCs at 50 uM preincubated for 60 mins followed by phenylephrine stimulation and measured upto 30 mins by Western blot analysis", "format": "cell-based", "conditions": "time 90.0 min"}, "[7]": {"biological_target": "T1, Protein phosphatase 1 regulatory subunit 12A (Rattus norvegicus) (UniProt Q10728)", "T1 sequence (whole entry)": "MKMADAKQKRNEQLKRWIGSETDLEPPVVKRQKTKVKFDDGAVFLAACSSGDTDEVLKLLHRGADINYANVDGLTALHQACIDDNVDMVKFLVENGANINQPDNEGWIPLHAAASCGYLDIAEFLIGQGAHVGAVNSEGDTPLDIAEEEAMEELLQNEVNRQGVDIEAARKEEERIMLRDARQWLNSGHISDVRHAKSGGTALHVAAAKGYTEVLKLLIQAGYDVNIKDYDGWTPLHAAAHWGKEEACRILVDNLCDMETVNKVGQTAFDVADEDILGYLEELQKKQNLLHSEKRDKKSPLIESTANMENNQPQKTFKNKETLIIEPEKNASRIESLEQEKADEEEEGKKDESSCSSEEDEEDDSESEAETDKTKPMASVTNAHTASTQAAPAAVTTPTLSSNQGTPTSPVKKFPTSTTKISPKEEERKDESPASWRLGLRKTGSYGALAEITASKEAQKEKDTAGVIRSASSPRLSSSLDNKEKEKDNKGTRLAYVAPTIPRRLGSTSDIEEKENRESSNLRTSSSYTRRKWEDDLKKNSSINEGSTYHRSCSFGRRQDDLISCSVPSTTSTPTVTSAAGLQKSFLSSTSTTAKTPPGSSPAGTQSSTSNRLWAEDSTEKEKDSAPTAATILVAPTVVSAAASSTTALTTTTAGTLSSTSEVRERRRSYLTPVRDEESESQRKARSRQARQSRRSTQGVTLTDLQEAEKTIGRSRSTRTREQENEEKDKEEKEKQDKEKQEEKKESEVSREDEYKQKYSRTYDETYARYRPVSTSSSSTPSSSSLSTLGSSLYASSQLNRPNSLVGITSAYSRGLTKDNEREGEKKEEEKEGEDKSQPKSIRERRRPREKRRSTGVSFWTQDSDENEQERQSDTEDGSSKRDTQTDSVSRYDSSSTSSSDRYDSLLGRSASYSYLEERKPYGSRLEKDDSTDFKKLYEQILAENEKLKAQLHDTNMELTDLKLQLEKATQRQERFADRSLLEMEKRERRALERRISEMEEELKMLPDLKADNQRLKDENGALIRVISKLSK", "assay": "Activation of MYTP1 phosphorylation at Ser668 residue in Wistar rat VSMCs at 50 uM incubated for 60 mins by Western blot analysis", "format": "cell-based", "conditions": "VSMC, filed as activator"}, "[8]": {"biological_target": "T1, Protein phosphatase 1 regulatory subunit 12A (Rattus norvegicus)", "assay": "Activation of MYTP1 phosphorylation at Ser668 residue in phenylephrine-stimulated Wistar rat VSMCs at 50 uM preincubated for 60 mins followed by phenylephrine stimulation and measured upto 30 mins by Western blot analysis", "format": "cell-based", "conditions": "VSMC, filed as activator, time 90.0 min"}, "[9]": {"biological_target": "T1, Protein phosphatase 1 regulatory subunit 12A (Rattus norvegicus)", "assay": "Activation of MYTP1 phosphorylation at Ser695 residue in phenylephrine-stimulated Wistar rat VSMCs at 50 uM preincubated for 60 mins followed by phenylephrine stimulation and measured upto 30 mins by Western blot analysis", "format": "cell-based", "conditions": "VSMC, filed as activator, time 90.0 min"}, "VSMC [10]": {"system": "VSMC", "assay": "Activation of HSP20 phosphorylation in isoproterenol-induced Wistar rat VSMCs at 50 uM preincubated for 60 mins followed by ISO stimulation and measured upto 30 mins by Western blot analysis", "format": "cell-based", "conditions": "filed as activator, time 90.0 min"}, "VSMC [11]": {"system": "VSMC", "assay": "Activation of PKA substrate phosphorylation in Wistar rat VSMCs at 50 uM incubated for 60 mins by Western blot analysis", "format": "cell-based", "conditions": "filed as activator"}, "VSMC [12]": {"system": "VSMC", "assay": "Activation of HSP90 phosphorylation in Wistar rat VSMCs at 50 uM incubated for 60 mins by Western blot analysis", "format": "cell-based", "conditions": "filed as activator"}, "VSMC [13]": {"system": "VSMC", "assay": "Activation of PKA substrate phosphorylation in isoproterenol-induced Wistar rat VSMCs at 50 uM preincubated for 60 mins followed by ISO stimulation and measured upto 30 mins by Western blot analysis", "format": "cell-based", "conditions": "filed as activator, time 90.0 min"}, "VSMC [14]": {"system": "VSMC", "assay": "Activation of PKA substrate phosphorylation in Wistar rat VSMCs incubated for 60 mins by Western blot analysis", "format": "cell-based", "conditions": "filed as activator, dose 5-50 µM, DDE = dose-dependent effect"}, "B16-F10": {"system": "B16-F10", "assay": "Activation of PKA substrate phosphorylation in mouse B16-F10 cells incubated for 60 mins by Western blot analysis", "format": "cell-based", "conditions": "filed as activator"}, "[15]": {"biological_target": "cAMP-dependent protein kinase (PKA) (Homo sapiens) (UniProt P22694+P17612+P22612)", "assay": "Activation of PKA substrate phosphorylation in HEK293 cells incubated for 60 mins by Western blot analysis", "format": "cell-based", "conditions": "filed as activator"}, "VSMC [16]": {"system": "VSMC", "assay": "Activation of PKA substrate phosphorylation in Wistar rat VSMCs at 10 uM incubated for 60 mins in the presence of LY294002 by Western blot analysis", "format": "cell-based", "conditions": "filed as activator"}, "VSMC [17]": {"system": "VSMC", "assay": "Inhibition of isoproterenol-induced AKT phosphorylation at Thr308 residue in Wistar rat VSMCs at 50 uM preincubated for 60 mins followed by ISO stimulation and measured upto 30 mins by Western blot analysis", "format": "cell-based", "conditions": "time 90.0 min"}, "VSMC [18]": {"system": "VSMC", "assay": "Inhibition of isoproterenol-induced AKT phosphorylation at Ser473 residue in Wistar rat VSMCs at 50 uM preincubated for 60 mins followed by ISO stimulation and measured upto 30 mins by Western blot analysis", "format": "cell-based", "conditions": "time 90.0 min"}, "[19]": {"assay": "Inhibition of recombinant human full length PI3K p110alpha/[…] alpha activity assessed as PIP3 generation using PI(4,5)P2 (PIP2) as substrate incubated for 3 hrs by competitive binding based colorimetric analysis"}, "VSMC [20]": {"system": "VSMC", "assay": "Activation of PKA in isoproterenol-induced Wistar rat VSMCs assessed as fold increase in intracellular cAMP concentration at 50 uM measured 20 mins after ISO stimulation relative to isoproterenol", "format": "cell-based", "conditions": "filed as activator"}, "VSMC [21]": {"system": "VSMC", "assay": "Activation of PKA substrate phosphorylation in Wistar rat VSMCs at 10 uM incubated for 60 mins in the presence of IBMX by Western blot analysis", "format": "cell-based", "conditions": "filed as activator"}, "VSMC [22]": {"system": "VSMC", "assay": "Inhibition of AKT phosphorylation at Ser473 residue in Wistar rat VSMCs at 10 uM measured upto 60 mins by Western blot analysis", "format": "cell-based"}, "VSMC [23]": {"system": "VSMC", "assay": "Activation of PKA substrate phosphorylation in Wistar rat VSMCs at 10 uM incubated for 60 mins by Western blot analysis", "format": "cell-based", "conditions": "filed as activator"}, "VSMC [24]": {"system": "VSMC", "assay": "Activation of PKA in isoproterenol-induced Wistar rat VSMCs assessed as fold increase in intracellular cAMP concentration at 10 uM measured 20 mins after ISO stimulation", "format": "cell-based", "conditions": "filed as activator"}, "VSMC [25]": {"system": "VSMC", "assay": "Inhibition of isoproterenol-induced PKA substrate phosphorylation in Wistar rat VSMCs at 10 uM preincubated for 60 mins followed by ISO stimulation and measured upto 30 mins by Western blot analysis", "format": "cell-based", "conditions": "time 90.0 min"}},
  "note": "Calls of active or inactive are those of the source. The rule behind the calls is not given here.",
  "data": [
    {"smiles": "CC(C)Cn1c(=O)n(C)c(=O)c2nc[nH]c21", "values": [
      {"measurement": "Activity", "setting": "VSMC [1]", "result": "Active"},
      {"measurement": "Activity", "setting": "VSMC [2]", "result": "Active"},
      {"measurement": "Activity", "setting": "VSMC [3]", "result": "Active"},
      {"measurement": "Activity", "setting": "VSMC [4]", "result": "Active"}
    ]},
    {"smiles": "CC[C@H](CC(=O)O)c1c2c(c(O)c3c1O[C@H](C)[C@H](C)C3=O)C=CC(C)(C)O2", "values": [
      {"measurement": "Activity", "setting": "VSMC [5]", "result": 80, "unit": "%"},
      {"measurement": "inhibition", "setting": "VSMC [6]", "result": "Active"},
      {"measurement": "Activity", "setting": "[7]", "result": "Active"},
      {"measurement": "Activity", "setting": "[8]", "result": "Active"},
      {"measurement": "Activity", "setting": "[9]", "result": "Active"},
      {"measurement": "Activity", "setting": "VSMC [10]", "result": "Active"},
      {"measurement": "Activity", "setting": "VSMC [11]", "result": "Active"},
      {"measurement": "Activity", "setting": "VSMC [12]", "result": "Active"},
      {"measurement": "Activity", "setting": "VSMC [13]", "result": "Active"},
      {"measurement": "Activity", "setting": "VSMC [14]", "result": "Dde"},
      {"measurement": "Activity", "setting": "B16-F10", "result": "Active"},
      {"measurement": "Activity", "setting": "[15]", "result": "Active"},
      {"measurement": "Activity", "setting": "VSMC [3]", "result": "Active"},
      {"measurement": "Activity", "setting": "VSMC [16]", "result": "Active"},
      {"measurement": "inhibition", "setting": "VSMC [17]", "result": "Active"},
      {"measurement": "inhibition", "setting": "VSMC [18]", "result": "Active"},
      {"measurement": "IC50", "setting": "[19]", "result": 6, "unit": "µM"},
      {"measurement": "fold change (FC)", "setting": "VSMC [20]", "result": 2.5}
    ]},
    {"smiles": "O=c1cc(N2CCOCC2)oc2c(-c3ccccc3)cccc12", "values": [
      {"measurement": "Activity", "setting": "VSMC [21]", "result": "Active"},
      {"measurement": "Activity", "setting": "VSMC [3]", "result": "Active"},
      {"measurement": "inhibition", "setting": "VSMC [22]", "result": "Active"},
      {"measurement": "Activity", "setting": "VSMC [23]", "result": "Active"},
      {"measurement": "fold change (FC)", "setting": "VSMC [24]", "result": 2}
    ]},
    {"smiles": "O=S(=O)(NCCNC/C=C/c1ccc(Br)cc1)c1cccc2cnccc12", "values": [
      {"measurement": "inhibition", "setting": "VSMC [25]", "result": "Active"}
    ]}
  ]
}
